36 compounds from US20260274807A1 (University of Health Sciences and Pharmacy in St. Louis, priority 2023, published 2026) can be followed below.

The target of experiment [1] is T1, ERRγ (Homo sapiens, UniProt P62508).
T1 construct: expressed in transfected cells; host or cells: HEK293
T1 sequence (P62508 1-458): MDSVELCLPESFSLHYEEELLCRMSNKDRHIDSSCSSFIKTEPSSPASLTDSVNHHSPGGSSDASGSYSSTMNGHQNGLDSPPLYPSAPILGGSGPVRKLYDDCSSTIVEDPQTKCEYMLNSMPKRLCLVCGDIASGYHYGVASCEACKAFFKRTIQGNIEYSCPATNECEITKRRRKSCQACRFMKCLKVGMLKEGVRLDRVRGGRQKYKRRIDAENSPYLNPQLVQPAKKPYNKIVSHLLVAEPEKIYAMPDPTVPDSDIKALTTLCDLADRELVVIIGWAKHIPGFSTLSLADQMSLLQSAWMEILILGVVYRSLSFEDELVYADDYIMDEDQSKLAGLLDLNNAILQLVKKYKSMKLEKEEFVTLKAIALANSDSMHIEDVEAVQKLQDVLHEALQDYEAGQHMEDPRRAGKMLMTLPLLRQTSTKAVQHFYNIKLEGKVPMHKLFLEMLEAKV
Nature of the experiment: ERRE luciferase reporter assay in HEK293 cells transfected with pcDNA3.1 ERRγ. In kind it is cell-based. Set-up: key to EC50 (ERRγ) μM: * <1 μM; ** 1-5 μM; *** >5 μM; i.a. (inactive). Conditions: HEK293 cells transfected with ERRE reporter construct and pcDNA3.1 ERRγ; compound for 24 hours; luciferase activity.

Experiment [2] has as its target T2, ERRα (Homo sapiens, UniProt P11474).
T2 construct: expressed in transfected cells; host or cells: HEK293
T2 sequence (P11474 1-423): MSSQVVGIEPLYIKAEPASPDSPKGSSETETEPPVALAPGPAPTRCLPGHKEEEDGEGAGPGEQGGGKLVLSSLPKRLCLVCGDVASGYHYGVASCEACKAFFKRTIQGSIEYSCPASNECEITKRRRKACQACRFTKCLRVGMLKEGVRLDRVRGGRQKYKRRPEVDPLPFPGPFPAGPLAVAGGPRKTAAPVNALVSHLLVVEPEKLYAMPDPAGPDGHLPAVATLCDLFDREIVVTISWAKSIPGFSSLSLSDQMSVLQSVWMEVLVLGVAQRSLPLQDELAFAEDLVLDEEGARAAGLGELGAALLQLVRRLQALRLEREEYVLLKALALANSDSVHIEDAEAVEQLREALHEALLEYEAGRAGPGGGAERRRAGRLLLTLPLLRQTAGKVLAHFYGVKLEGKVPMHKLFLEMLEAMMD
Nature of the experiment: ERRE luciferase reporter assay in HEK293 cells transfected with pcDNA3.1 ERRα. It counts as cell-based. Set-up: key to EC50 (ERRα) μM: * <1 μM; ** 1-5 μM; *** >5 μM; i.a. (inactive). Conditions: HEK293 cells transfected with ERRE reporter construct and pcDNA3.1 ERRα; compound for 24 hours; luciferase activity.

As for `COc1ccc(-c2nnc(-c3ccccc3[N+](=O)[O-])s2)cc1` [Entry 1021, 2-(4-methoxyphenyl)-5-(2-nitrophenyl)-1,3,4-thiadiazole], the concentration giving a half-maximal response (EC50) in experiment [1] and in experiment [2] was < 1000 nM each time.

With `COc1ccc(-c2nnc(-c3cccs3)s2)cc1` [Entry 1022, 2-(4-methoxyphenyl)-5-(thiophen-2-yl)-1,3,4-thiadiazole], the concentration giving a half-maximal response (EC50) in experiment [1] and in experiment [2] was < 1000 nM in each case.

For `COc1cccc(-c2nnc(-c3ccccc3)s2)c1[N+](=O)[O-]` [Entry 1023, 2-(3-methoxy-2-nitrophenyl)-5-phenyl-1,3,4-thiadiazole], the concentration for a half-maximal effect (EC50) in experiment [1] and in experiment [2] was < 1000 nM each time.

Take `COc1ccc(-c2nnc(-c3ccccc3Cl)s2)cc1` [Entry 1024, 2-(2-chlorophenyl)-5-(4-methoxyphenyl)-1,3,4-thiadiazole]: the 50% effective concentration (EC50) in experiment [1] and in experiment [2] was < 1000 nM in each case.

Consider `Cc1ccc(-c2nnc(-c3ccnc4ccccc34)s2)cc1` [Entry 1025, 2-(quinolin-4-yl)-5-(p-tolyl)-1,3,4-thiadiazole], for which the 50% effective concentration (EC50) in experiment [1] and in experiment [2] was < 1000 nM throughout.

Turning to `COc1ccc(-c2nnc(-c3ccccc3)s2)c(N)c1` [Entry 1026, 5-methoxy-2-(5-phenyl-1,3,4-thiadiazol-2-yl)aniline], the EC50 in experiment [1] and in experiment [2] was > 5000 nM in each case.

As to `CC(C)(C)c1ccc(-c2nnc(-c3ccccc3N)s2)cc1` [Entry 1027, 2-(5-(4-(tert-butyl)phenyl)-1,3,4-thiadiazol-2-yl)aniline], the EC50 in experiment [1] and in experiment [2] was < 1000 nM in each case.

On to `O=[N+]([O-])c1ccccc1Cc1nnc(-c2ccc(C(F)(F)F)cc2)s1` [Entry 1028, 2-(2-nitrobenzyl)-5-(4-(trifluoromethyl)phenyl)-1,3,4-thiadiazole], for which the concentration giving a half-maximal response (EC50) in experiment [1] and in experiment [2] was 1000 to 5000 nM in each case.

`Cc1ccc(-c2nnc(-c3ccc(C)o3)s2)cc1` [Entry 1029, 2-(5-methylfuran-2-yl)-5-(p-tolyl)-1,3,4-thiadiazole]: the EC50 – broadly, the concentration needed to bring the measured effect to its halfway point – in experiment [1] was < 1000 nM; in experiment [2], 1000 to 5000 nM.

On to `Nc1ccc(-c2nnc(-c3ccccc3)s2)cc1` [Entry 1030, 4-(5-phenyl-1,3,4-thiadiazol-2-yl)aniline], for which the half-maximal effective concentration (EC50) in experiment [1] and in experiment [2] was < 1000 nM throughout.

Consider `Cc1ccc(-c2nnc(-c3cccs3)s2)cc1` [Entry 1031, 2-(thiophen-2-yl)-5-(p-tolyl)-1,3,4-thiadiazole], for which the concentration for a half-maximal effect (EC50) in experiment [1] and in experiment [2] was < 1000 nM throughout.

With `O=C(Nc1nnc(-c2ccccc2)s1)c1ccccc1` [Entry 1032, N-(5-phenyl-1,3,4-thiadiazol-2-yl)benzamide], the “EC50 (ERRγ) μM” value in experiment [1] is listed as “i.a”. In addition, in experiment [2], the “EC50 (ERRα) μM” value is given as “i.a”.

As for `COc1ccc(-c2nnc(NC(=O)c3ccccc3)s2)cc1` [Entry 1033, N-(5-(4-methoxyphenyl)-1,3,4-thiadiazol-2-yl)benzamide], the “EC50 (ERRγ) μM” value in experiment [1] is recorded as “i.a”. For the same compound, the “EC50 (ERRα) μM” value in experiment [2] was “i.a”.

For `Cc1ccc(C(=O)Nc2nnc(-c3ccccc3Cl)s2)cc1` [Entry 1034, N-(5-(2-chlorophenyl)-1,3,4-thiadiazol-2-yl)-4-methylbenzamide], in experiment [1], the “EC50 (ERRγ) μM” value was “i.a”. Moreover, in experiment [2], the “EC50 (ERRα) μM” value is reported as “i.a”.

`COc1ccc([N+](=O)[O-])c(-c2nnc(-c3ccccc3)s2)c1` [Entry 1035, 2-(5-methoxy-2-nitrophenyl)-5-phenyl-1,3,4-thiadiazole]: the concentration for a half-maximal effect (EC50) in experiment [1] and in experiment [2] was 1000 to 5000 nM throughout.

On to `COc1ccc(-c2nnc(-c3ccccc3)s2)c([N+](=O)[O-])c1` [Entry 1036, 2-(4-methoxy-2-nitrophenyl)-5-phenyl-1,3,4-thiadiazole], for which the EC50 in experiment [1] and in experiment [2] was < 1000 nM each time.

Take `O=[N+]([O-])c1cc(Br)ccc1-c1nnc(-c2ccccc2)s1` [Entry 1037, 2-(4-bromo-2-nitrophenyl)-5-phenyl-1,3,4-thiadiazole]: the EC50 in experiment [1] is < 1000 nM; in experiment [2] it was 1000 to 5000 nM.

For the compound `c1ccc(Cc2nnc(-c3ccccc3)s2)cc1` [Entry 1038, 2-benzyl-5-phenyl-1,3,4-thiadiazole], the 50% effective concentration (EC50) in experiment [1] and in experiment [2] was 1000 to 5000 nM each time.

As to `c1ccc(-c2ccc(Cc3nnc(-c4ccccc4)s3)cc2)cc1` [Entry 1039, 2-([1,1′-biphenyl]-4-ylmethyl)-5-phenyl-1,3,4-thiadiazole], the EC50 in experiment [1] and in experiment [2] was > 5000 nM in each case.

Take `Cc1cccc(-c2nnc(-c3ccccc3Cl)s2)c1` [Entry 1041, 2-(2-chlorophenyl)-5-(m-tolyl)-1,3,4-thiadiazole]: the EC50 in experiment [1] was < 1000 nM; in experiment [2], > 5000 nM.

Turning to `Cc1ccc(-c2nnc(-c3ccc4ccccc4n3)s2)cc1` [Entry 1042, 2-(quinolin-2-yl)-5-(p-tolyl)-1,3,4-thiadiazole], the results for the EC50 in experiment [1] and in experiment [2] were < 1000 nM and > 5000 nM, respectively.

Consider `Cc1ccc(-c2nnc(-c3cccc4ccccc34)s2)cc1` [Entry 1043, 2-(naphthalen-1-yl)-5-(p-tolyl)-1,3,4-thiadiazole], for which the EC50 in experiment [1] and in experiment [2] was < 1000 nM each time.

As to `Cc1ccc(-c2nnc(-c3ccc4ccccc4c3)s2)cc1` [Entry 1044, 2-(naphthalen-2-yl)-5-(p-tolyl)-1,3,4-thiadiazole], the EC50 is < 1000 nM in experiment [1] and > 5000 nM in experiment [2].

Regarding `Cc1ccc(-c2nnc(-c3cccc(Cl)c3)s2)cc1` [Entry 1045, 2-(3-chlorophenyl)-5-(p-tolyl)-1,3,4-thiadiazole], the EC50 in experiment [1] and in experiment [2] was < 1000 nM throughout.

Take `Oc1ccc(-c2nnc(-c3ccc4ccccc4c3)s2)cc1` [Entry 1046, 4-(5-(naphthalen-2-yl)-1,3,4-thiadiazol-2-yl)phenol]: the half-maximal effective concentration (EC50) in experiment [1] and in experiment [2] was < 1000 nM each time.

Regarding `Oc1ccc(-c2nnc(-c3ccc4ccccc4n3)s2)cc1` [Entry 1047, 4-(5-(quinolin-2-yl)-1,3,4-thiadiazol-2-yl)phenol], the “EC50 (ERRγ) μM” value in experiment [1] is reported as “i.a”. Further, in experiment [2], the “EC50 (ERRα) μM” value is reported as “i.a”.

Turning to `Cc1ccc(-c2nnc(-c3ccc(Cl)cc3)s2)cc1` [Entry 1048, 2-(4-chlorophenyl)-5-(p-tolyl)-1,3,4-thiadiazole], the EC50 in experiment [1] and in experiment [2] was < 1000 nM each time.

Take `COC(=O)c1cccc(-c2nnc(-c3ccccc3Cl)s2)c1` [Entry 1050, methyl 3-(5-(2-chlorophenyl)-1,3,4-thiadiazol-2-yl)benzoate]: the EC50 in experiment [1] and in experiment [2] was < 1000 nM throughout.

In the case of `COC(=O)c1ccc(-c2nnc(-c3ccccc3Cl)s2)cc1` [Entry 1051, methyl 4-(5-(2-chlorophenyl)-1,3,4-thiadiazol-2-yl)benzoate], the half-maximal effective concentration (EC50) in experiment [1] and in experiment [2] was < 1000 nM each time.

As to `CCCCOc1ccc(-c2nnc(-c3ccccc3Cl)s2)cc1` [Entry 1052, 2-(4-butoxyphenyl)-5-(2-chlorophenyl)-1,3,4-thiadiazole], the EC50 in experiment [1] and in experiment [2] was < 1000 nM throughout.

In the case of `Cc1ccc(-c2nnc(-c3cnn(-c4ccccc4)c3)s2)cc1` [Entry 1053, 2-(1-phenyl-1H-pyrazol-4-yl)-5-(p-tolyl)-1,3,4-thiadiazole], the EC50 in experiment [1] is < 1000 nM; in experiment [2] it was > 5000 nM.

Turning to `Cc1ccc(-c2nnc(-c3ccc(B(O)O)cc3)s2)cc1` [Entry 1055, (4-(5-(p-tolyl)-1,3,4-thiadiazol-2-yl)phenyl)boronic acid], the EC50 in experiment [1] and in experiment [2] was < 1000 nM throughout.

For the compound `Cc1ccc(-c2nnc(-c3cccc4ncccc34)s2)cc1` [Entry 1058, 2-(quinolin-5-yl)-5-(p-tolyl)-1,3,4-thiadiazole], the 50% effective concentration (EC50) in experiment [1] and in experiment [2] was < 1000 nM each time.

For the compound `Clc1ccccc1-c1nnc(-c2cccc3ncccc23)s1` [Entry 1059, 2-(2-chlorophenyl)-5-(quinolin-5-yl)-1,3,4-thiadiazole], the EC50 in experiment [1] and in experiment [2] was < 1000 nM throughout.

As for `Cc1ccc(-c2nnc(-c3nccs3)s2)cc1` [Entry 1060, 2-(thiazol-2-yl)-5-(p-tolyl)-1,3,4-thiadiazole], the EC50 in experiment [1] and in experiment [2] was < 1000 nM in each case.

`Clc1ccccc1-c1nnc(-c2nccs2)s1` [Entry 1061, 2-(2-chlorophenyl)-5-(thiazol-2-yl)-1,3,4-thiadiazole]: the 50% effective concentration (EC50) in experiment [1] and in experiment [2] was > 5000 nM in each case.
